The structures appear in SMILES notation. pIC50: −log10 of the molar value.

Series [1] concerns the target T1, PPARγ ligand binding domain (LBD) (amino acids 195-475) (Homo sapiens, UniProt P37231).
T1 construct: polyHis; made in house; host or cells: Escherichia coli
T1 sequence (P37231 195-475 isoform P37231-2): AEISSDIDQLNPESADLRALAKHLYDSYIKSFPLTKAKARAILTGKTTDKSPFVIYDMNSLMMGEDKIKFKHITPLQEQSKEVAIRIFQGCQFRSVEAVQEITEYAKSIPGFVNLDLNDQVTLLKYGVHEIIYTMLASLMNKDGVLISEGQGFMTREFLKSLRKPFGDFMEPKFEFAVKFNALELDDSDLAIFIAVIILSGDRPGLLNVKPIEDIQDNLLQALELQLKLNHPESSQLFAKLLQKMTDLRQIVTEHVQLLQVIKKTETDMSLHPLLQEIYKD
As to the kind of experiment: PPAR-γ binding assay (spin plate / gel filtration binding assay, displacement of [3H]BRL 49653). The following applies: read-out: IC50 range in the PPAR-γ Binding Assay. How it is done: The activity of a given compound in binding to PPAR-γ can be assayed routinely according to procedures known in the art. […] The PPAR-γ binding assay described below was used to determine the PPAR-γ binding activities of the compounds of the invention.
Compounds were tested for their ability to bind to PPARγ using a spin plate assay (gel filtration binding assay). […] Each compound was tested in triplicate. […] The plates were centrifuged (Beckman GS-6R) at 2500 rpm for 5 minutes, 170 μl Scitisafe® scintillation fluid (Fisher) was added to each well, the plates were sealed, and after 1 hour, were counted in a Wallac MicroBeta counter. The amount of nonspecific binding, as assessed by control wells containing 10 μM of the corresponding unlabeled ligand, was subtracted from each data point. For each compound tested, the data was averaged and plots of ligand concentration versus CPM of radioligand bound were constructed. Apparent IC50 values were estimated from nonlinear least-squares fit of the data assuming simple competitive binding.
In general terms: Size exclusion chromatography separates by hydrodynamic size, large species first.

What is called melting point is the temperature, or range, at which the solid turns liquid. For orientation: pIC50 means −log10 of the IC50, conventionally taken in molar units. Regarding `COc1cccc(Cn2c(C(=O)O)c3c4cc(ccc42)OCCCCCCOc2cccc-3c2)c1` [Example 300], the melting point was in the range of 79 to 80 °C. For the same compound, the pIC50 in series [1] is 5.00 to 8.00.

Take `COc1ccc(-c2c(C(=O)O)n(Cc3cccc(OC)c3)c3ccc(C(C)=O)cc23)cc1` [Example 301]: the melting point was 190 °C (dec.). The pIC50 in series [1] is 5.00 to 8.00.

Consider `COc1ccc(-c2c(C(=O)O)n(Cc3cccc(OC)c3)c3c(NC(=O)C4CC4)cccc23)cc1` [Example 302], for which the melting point was 210 °C (dec.). In addition, the pIC50 in series [1] is 5.00 to 8.00.

As to `COc1ccc(-c2c(C(=O)O)n(Cc3cccc(OC)c3)c3c(N(C)C(=O)C4CC4)cccc23)cc1` [Example 303], the melting point was 98 °C (dec.). Further, in series [1], the pIC50 was 5.00 to 8.00.

`COc1cccc(Cn2c(C(=O)O)c(-c3ccc(C(=O)NC4CC4)cc3)c3ccccc32)c1` [Example 323, 3-[4-(N-cyclopropylcarbamoyl)phenyl]-1-[(3-methoxyphenyl)methyl]indole-2-carboxylic acid]: the melting point is 237 °C. The pIC50 in series [1] is 5.00 to 8.00.

On to `COc1cccc(Cn2c(C(=O)O)c(-c3ccc(C(=O)NC4CCCC4)cc3)c3ccccc32)c1` [Example 324], for which the melting point was 230 °C. Also, in series [1], the negative-log IC50 (pIC50) was 5.00 to 8.00.

`COc1cccc(Cn2c(C(=O)O)c(-c3ccc(C(=O)NC4CCCCC4)cc3)c3ccccc32)c1` [Example 325] showed a melting point of 245 °C. For the same compound, in series [1], the pIC50 was 5.00 to 8.00.

Regarding `COc1cccc(Cn2c(C(=O)O)c(-c3cccc(NC(=O)C4CCCC4)c3)c3ccccc32)c1` [Example 327], the melting point was 133 °C (dec.). The pIC50 in series [1] was 5.00 to 8.00.

As for `COc1cccc(Cn2c(C(=O)O)c(-c3cccc(C(=O)NC4CC4)c3)c3ccccc32)c1` [Example 328], the melting point amounted to 204 °C. The negative-log IC50 (pIC50) in series [1] is 5.00 to 8.00.

The compound `COc1cccc(Cn2c(C(=O)O)c(-c3cccc(C(=O)NC4CCCC4)c3)c3ccccc32)c1` [Example 329] had a melting point of 108 °C. Moreover, in series [1], the pIC50 is 5.00 to 8.00.

Take `COc1cccc(Cn2c(C(=O)O)c(-c3ccc(C(C)(C)C)cc3)c3cc(NCC4CC4)ccc32)c1` [Example 335]: the melting point lay in the range of 180 to 181 °C. Also, the pIC50 in series [1] was 8.00 to 10.00.

Take `O=C(O)c1c(-c2cccc(OCC3CC3)c2)c2ccccc2n1Cc1ccc(F)cc1` [Example 339, 3-[3-(Cyclopropylmethoxy)phenyl]-1-[(4-fluorophenyl)methyl]indole-2-carboxylic Acid]: the melting point is 200 to 202 °C. Besides, the pIC50 in series [1] is 8.00 to 10.00.

Turning to `O=C(O)c1c(-c2ccc(OCC3CC3)cc2)c2ccccc2n1Cc1ccc(F)cc1` [Example 341], the melting point was in the range of 197 to 198 °C. Moreover, the pIC50 in series [1] was 8.00 to 10.00.

As for `COc1cccc(Cn2c(C(=O)O)c(-c3ncc(C(C)=O)s3)c3ccccc32)c1` [Example 343], the melting point was 218 °C (dec.). For the same compound, the pIC50 in series [1] is 8.00 to 10.00.

Take `COc1cccc(Cn2c(C(=O)O)c(-c3cccc(OCC4CC4)c3)c3ccccc32)c1` [Example 345]: the melting point is 147 to 148 °C. Also, in series [1], the pIC50 was 8.00 to 10.00.

As to `O=C(O)c1c(-c2ccc(OCC3CC3)cc2)c2ccccc2n1Cc1cccc(OC(F)(F)F)c1` [Example 346], the melting point was in the range of 204 to 205 °C. For the same compound, the pIC50 in series [1] is 8.00 to 10.00.

As for `CCOc1ccc(-c2c(C(=O)O)n(Cc3ccc(F)cc3)c3ccc(COCC4CC4)cc23)cc1` [Example 347, 5-[(Cyclopropylmethoxy)methyl]-3-(4-ethoxyphenyl)-1-(4-fluorobenzyl)-1H-indole-2-carboxylic acid], the melting point is 171 to 173 °C. For the same compound, the pIC50 in series [1] was 8.00 to 10.00.

Compound `COc1ccc(-c2c(C(=O)NS(=O)(=O)c3ccc(C)cc3)n(Cc3cccc(C(F)(F)F)c3)c3ccccc23)cc1` [Example 358] had a melting point of 162 °C. For the same compound, the pIC50 in series [1] was 5.00 to 8.00.

For `COc1ccc(-c2c(C(=O)NS(=O)(=O)c3ccc(Cl)cc3)n(Cc3cccc(C(F)(F)F)c3)c3ccccc23)cc1` [Example 359], the melting point was 166 °C. Also, the pIC50 in series [1] was 8.00 to 10.00.

For the origin of these results see patent US6787651B2, “Substituted indoles, pharmaceutical compounds containing such indoles and their use as PPAR-γ binding agents” (SmithKline Beecham Corporation, priority 2000, dated 2004).
